Reference: patent publication US8227419B2, “Method of treating conditions associated with airway tissue remodeling” (CRC For Asthma and Airways Ltd., priority 2006, dated 2012)
Entries after “also recorded” stand apart in the source; their conditions may differ. Where a SMILES comes first, the peptide text is derived from it.

Tests used:
[1] = test system: primary lung endothelial cells; assay: MTT proliferation assay, primary lung endothelial cells; type: cell-based, human; details: peptide 4.5 μM; day 3, 7 and 9; n=5 cell lines
Description: Human pulmonary endothelial cells were isolated from bronchial tissue obtained during lung transplantation. Blood vessels were dissected free from surrounding tissue and cut longitudinally and then cut into approximately 5 mm segments. Blood vessel segments were then placed in a 15 ml falcon tube containing 10 ml of digestive buffer, (1 mg (250 U)/ml type 2 collagenase, 1 U/ml dispase, 10 mg/ml BSA) the tube was placed in the incubator for 10 minutes and agitated every 2 minutes. Digestive mixture was changed every 10 minutes for a total of 50 minutes. 1/10 volume of FBS was added to the supernantants that were removed every 10 minutes. Supernatants were then centrifuged at 200 g for 5 minutes. Supernantants were removed and cells were washed with culture medium, this contained 10% FBS, 10 μg/ml endothelial cell growth supplement, 20 U/ml heparin and 2% antibiotics, and centrifuged at 200 g for 5 minutes. Supernantants were removed and cells were placed in 75 cm^2 vented tissue culture flasks (Falcon Labware) containing 10 ml of culture medium, and incubated for 1 hour at 37° C. […] Proliferation was assessed using an MTT assay (SIGMA-aldrich, Missouri, USA) at day 3, 7 and 9. […] The specific absorption of each well was measured at 690 nm (reference) and 570 nm.

[2] = test system: asthmatic smooth muscle cells; assay: MTT proliferation assay, asthmatic airway smooth muscle cells; type: cell-based, human; details: peptide 4.5 μM; all timepoints of FIG. 11; n=4 ASM cell lines
From the text: Human airway smooth muscle cells were isolated by microdissection from bronchial tissue obtained from either bronchoscopy, lung tissue obtained from lung transplants, or lung tissue resected at thoracotomy. Ethical approval for the use of the lung tissue for/in vitro/experimentation was granted by the Human Ethics Committee of the University of Sydney, and the Sydney South West Area Health Service, and informed consent was received from all subjects. Asthmatic ASM cells were isolated from airway biopsies, and all but one of the non asthmatic derived ASM cells were isolated from either resected lung tissue, or lung transplantation (both donor and recipient) This isolation and culture of ASM cells was carried out according to a method described by Johnson et al. 1995. Briefly, with the use of a dissecting microscope, sterile equipment and aseptic technique, bronchial airways were dissected from the surrounding parenchyma and cut longitudinally. The bronchi were then briefly dipped in 70% (v/v) ethanol in water to kill any surface organisms. The bronchi were then washed in sterile Hanks balanced salt solution three times and pinned down in a sterile Petri dish with the epithelial surface facing upwards. […] Proliferation was assessed using an MTT assay (SIGMA-aldrich, Missouri, USA) at day 3, 7 and 9. […] The specific absorption of each well was measured at 690 nm (reference) and 570 nm.

## CSCC[C@H](NC(=O)[C@@H](NC(=O)[C@@H](NC(=O)[C@H](Cc1ccccc1)NC(=O)[C@H](CCCNC(=N)N)NC(=O)[C@H](CCC(N)=O)NC(=O)[C@@H](N)CC(C)C)[C@@H](C)O)[C@@H](C)O)C(=O)N1CCC[C@H]1C(=O)N[C@@H](Cc1ccccc1)C(=O)N[C@@H](CC(C)C)C(=O)N[C@@H](Cc1ccccc1)C(=O)N[C@@H](CS)C(=O)N[C@@H](CC(N)=O)C(=O)N[C@H](C(=O)N[C@@H](CC(N)=O)C(=O)N[C@@H](CC(=O)O)C(=O)N[C@H](C(=O)N[C@@H](CS)C(=O)N[C@@H](CC(N)=O)C(=O)N[C@@H](Cc1ccccc1)C(=O)O)C(C)C)C(C)C [T3] (H-LQRFTTMPFLFCNVNDVCNF-OH; N-terminus and C-terminus assumed)
[1]
  inhibition of proliferation of primary lung endothelial cells: able to inhibit the proliferation; also recorded: significantly inhibited by the presence of T3 peptide at all timepoints
[2]
  inhibition of FBS-induced proliferation of asthmatic smooth muscle cells: Neither T3 nor T7 peptides were shown to be able to inhibit; also recorded: not inhibited

## CSCC[C@H](NC(=O)[C@@H](N)[C@@H](C)O)C(=O)N1CCC[C@H]1C(=O)N[C@@H](Cc1ccccc1)C(=O)N[C@@H](CC(C)C)C(=O)N[C@@H](Cc1ccccc1)C(=O)N[C@@H](CS)C(=O)N[C@@H](CC(N)=O)C(=O)N[C@H](C(=O)N[C@@H](CC(N)=O)C(=O)N[C@@H](CC(=O)O)C(=O)N[C@H](C(=O)N[C@@H](CS)C(=O)N[C@@H](CC(N)=O)C(=O)N[C@@H](Cc1ccccc1)C(=O)N[C@@H](C)C(=O)N[C@@H](CO)C(=O)N[C@@H](CCCNC(=N)N)C(=O)N[C@@H](CC(N)=O)C(=O)N[C@@H](CC(=O)O)C(=O)N[C@@H](Cc1ccc(O)cc1)C(=O)N[C@@H](CO)C(=O)N[C@@H](Cc1ccc(O)cc1)C(=O)N[C@@H](Cc1c[nH]c2ccccc12)C(=O)N[C@@H](CC(C)C)C(=O)O)C(C)C)C(C)C [T7] (H-TMPFLFCNVNDVCNFASRNDYSYWL-OH; N-terminus and C-terminus assumed)
[1]
  inhibition of proliferation of primary lung endothelial cells: able to inhibit the proliferation; also recorded: inhibited proliferation at both day 7 and day 9
[2]
  inhibition of FBS-induced proliferation of asthmatic smooth muscle cells: Neither T3 nor T7 peptides were shown to be able to inhibit; also recorded: not inhibited
